{"source": "patent US20140243415A1", "about": "“COMPOUNDS INHIBITING GALECTIN-1 EXPRESSION, CANCER CELL PROLIFERATION, INVASION, AND TUMORIGENESIS” (ONCOETHIX SA, priority 2011, published 2014)", "key": {"[1]": {"system": "SQ20B xenografts", "test": "SQ20B xenograft model", "type": "in vivo", "procedure": "FIG. 6. […] A—The antitumor effects of OTX-008 on A2780-1A9 xenograft were compared to that of active doses of cisplatin and paclitaxel—solid line represents days of treatment. B—Immunohistochemistry of galectin-1, Ki67 (MIB-1) and CD31 on A2780-1A9 xenograft. C—Tumor growth and secondary tumor formation of SQ20B xenografts untreated and treated with 10 mg/kg/day OTX-008 and SQ-shGAL1 xenografts. Tumor volume was determined as 3.14(width2)/length—solid line represents days of treatment. D—Immunohistochemistry of galectin-1, MIB1, VEGFR2 and CD31 on SQ20B xenografts\nThe immunohistochemical procedure was performed on OCT-embedded subcutaneous tumor stained with H&E, MIB1 ( 1/400, Dako, Glostrup, Denmark), CD31 ( 1/200, Dako), VEGFR2 ( 1/125, Cell Signaling, Saint Quentin Yvelines, France) or galectin-1 (1:20, Abcam, Cambridge, Mass., USA) using an automated immunohistochemical stainer according to the manufacturer's guidelines (streptavidin-peroxidase protocol; Benchmark, Ventana, Tuscon, Ariz., USA). The images were captured and analyzed with a Zeiss observer Z1 microscope. Images quantification was performed using Histolab Software (Microvision, France) subtracting the background. Magnification ×20 and ×40.\n5.10^6 SQ20B or SQ20B-shGal1 cancer cells were injected s.c. into the right lateral flank of female nu/nu athymic mice. On day 5, mice were randomized; one group of SQ20B-mice was treated every other day with 10 mg/kg OTX-008 i.p. Tumor size was measured twice weekly with caliper and tumor volume was calculated as 3.14(width^2)/length. At the end of the study, mice were sacrificed, tumors were weighed and stored in OCT for molecular biology and immunohistochemical analysis. Secondary tumors were analyzed on liver, lung, intestine and skin in all mice. Mouse experiments complied with guidelines for Animal Housing and Experiment Board of the French authorities."}, "[2]": {"system": "SQ-shGal1 cells", "test": "Antiproliferative effects in galectin-1 silenced cells", "type": "cell-based, human", "details": "SQ-shGal1 cells in vitro", "procedure": "Galectin-1 shRNA, Semaphorin-3A shRNA and scrambled shRNA plasmids were purchased from Santa Cruz Biotechnology (Santa Cruz, Calif., USA) and transfected into cells using the manufacturer's shRNA transfection protocol. Briefly, a mix of 1 μg shRNA plasmid DNA solution and lpl shRNA plasmid transfection reagent were incubated 45 minutes at room temperature and then added on 50% confluent cells with shRNA plasmid transfection medium. After 6 hours incubation at 37° C., normal growth medium containing double serum and antibiotics concentration was added. After 24 h, the stably transfected cells were selected with puromycin.\nSQ-shGal1 cells were developed from SQ20B using a small hairpin GAL1-RNA silencing transfection. SQ-shGal1 cells display no difference in cell doubling-time and cloning capacity but expressed lower galectin-1 expression and invasive capacity in matrigel as compared to SQ20B (FIG. 8). […] As shown in FIG. 6C-left, silencing galectin-1 expression in mice was associated with a decreased development of secondary tumors as compared to parental SQ20B tumors. SQ-shGal1 cancer cells in tumors expressed lower level of Ki67 and VEGFR-2 expressions (FIG. 6D)."}, "[3]": {"system": "MCF7-shWISP", "test": "Antiproliferative effects, shWISP model", "type": "cell-based, human", "details": "MCF7-shWISP vs MCF7", "source_text": "FIG. 2. Epithelial-to-mesenchymal differentiation and OTX-008 sensitivity. A—Correlations between galectin-1 (LGALS1) and vimentin, E-cadherin (CDH1) and N-cadherin (CDH2) relative mRNA expression. B—Correlations between OTX-008 IC50s and vimentin, E-cadherin (CDH1) and N-cadherin (CDH2) relative mRNA expression. C—Antiproliferative effects of OTX-008 in epithelial COLO205-S and mesenchymal COLO205-R colon cancer cells. D—Antiproliferative effects of OTX-008 in SNAIL-inducible colon cancer cell lines. E—Antiproliferative effects of OTX-008 in shWISP breast cancer cell lines.\nCell survival was determined using the MTT assay (3-[4,5-dimethylthiazol-2-yl]-2,5-diphenyltetrazolium bromide; Sigma, Saint-Quentin Fallavier, France). The conversion of yellow water-soluble tetrazolium MTT into purple insoluble formazan is catalyzed by mitochondrial dehydrogenases and used to estimate the number of viable cells. In brief, cells were seeded in 96-well tissue culture plates at a density of 2×10^3 cells/well. […] After incubation, the supernatant was discarded, insoluble formazan precipitates were dissolved in 0.1 ml of DMSO and the absorbance was measured at 560 nm by use of a microplate reader (Thermo, France). […] IC50's were determined as the halves of maximal inhibitory drug concentration for each cell line. […]"}, "[4]": {"details": "10 mg/kg OTX-008 i.p. every other day"}}, "data": [{"smiles": "CN(C)CCNC(=O)COc1c2cccc1Cc1cccc(c1OCC(=O)NCCN(C)C)Cc1cccc(c1OCC(=O)NCCN(C)C)Cc1cccc(c1OCC(=O)NCCN(C)C)C2", "note": "[OTX-008]", "values": [{"measurement": "mice developing subcutaneous metastasis", "setting": "[1]; 10 mg/kg OTX-008, control group >80%", "value": 14, "unit": "%"}, {"measurement": "toxicity of the dose", "setting": "[1]; [4]", "value": "non-toxic dose"}, {"measurement": "tumor growth", "setting": "[1]; [4]", "value": "inhibited the growth of SQ20B xenografts"}, {"measurement": "cell proliferation (Ki67)", "setting": "[1]; SQ20B xenograft", "value": "significant decrease"}, {"measurement": "galectin-1 expression in tumors", "setting": "[1]; SQ20B xenograft", "value": "significant decrease"}, {"measurement": "secondary tumor development", "setting": "[1]; at mouse autopsies", "value": "significantly inhibited secondary tumor development"}, {"measurement": "number and diameter of micro-vessels", "setting": "[1]; vs control", "value": "significantly reduced"}, {"measurement": "antiproliferative effects in galectin-1 silenced cells", "setting": "[2]", "value": "does not further increase its antiproliferative effects"}, {"measurement": "effect of WISP inhibition on sensitivity", "setting": "[3]", "value": "marked resistance to high concentrations of the drug"}]}]}
